Data as given in patent publication US5006570A, “Dihydrobenzofuran- and chroman-carboxamide derivatives, processes for the preparation thereof and use thereof as neuroleptics” (Laboratoires Delagrange, priority 1986, dated 1991).
Like-named read-outs stand apart in the source and are kept apart here.

Tests used:
[1] = Acute toxicity in mice (LD50, Bliss' method); settings: mouse, in vivo
Method: Acute toxicity was studied in mice, the compounds being administered intravenously, subcutaneously, intraperitoneally and orally.
The doses causing the death of 50% of the animals (LD50) were determined by Bliss' method, giving the following results: […]

[2] = system: spontaneous motor function in mice; assay: Inhibition of spontaneous motor function in mice, Winter and Flataker test (photoelectric method); format: in vivo; settings: Mus musculus
Text: (§1) Thus, an inhibitory effect on spontaneous motor function in mice, a catalepsy-inducing power in rats, and antagonism towards certain apomorphine- and amphetamine-induced behavioural effects were investigated, in particular.
(§2) Regarding the spontaneous motor function in mice, an inhibitory effect of the inventive compounds was effectively observed and recorded by a photoelectric method, according to a technique similar to that of Winter and Flataker (J. Pharmacol. Exp. Ther. 1951, 101, 156-162) and by measurement of activity using an Animex apparatus.
(§3) The compounds were administered intraperitoneally or orally, respectively, 15 or 60 minutes before the recording according to the method adopted.
(§4) The values of the 50% inhibitory doses of motor function ID50 of the compounds are collected in the following table: […]

[3] = system: spontaneous motor function in mice; assay: Inhibition of spontaneous motor function in mice, Animex activity measurement test; format: in vivo; settings: Mus musculus
Text: as §1, §2, §3, §4

catalepsy in rats = assay: Catalepsy in rats; format: in vivo; settings: Rattus norvegicus, sc, subcutaneously, at the peak of effect
Method: The catalepsy-inducing function of the compounds of the invention was studied in rats. Each of the compounds was administered subcutaneously, at increasing doses, to groups of 10 rats (1 group for each dose). […] The dose giving rise to catalepsy in 50% of the animals (ED50) was determined graphically, at the peak of effect.

Apomorphine stereotypy [4] = assay: Antagonism of apomorphine stereotypy in rats (1.25 mg/kg IV, Janssen); format: in vivo; settings: Rattus norvegicus, sc, compound s.c. 60 minutes before apomorphine 1.25 mg/kg IV, read-out: ID50 S.C., Apomorphine stereotypy (1.25 mg/kg IV)
Text: (§5) Apomorphine and amphetamine induce stereotyped movements in rats which are antagonized by neuroleptics. […]
(§6) These different experimental conditions made it possible to establish the doses which antagonize stereotypy by 50% (ID50), judged on the basis of the various components of the movements which were observed.

Apomorphine stereotypy [5] = assay: Antagonism of apomorphine stereotypy in rats (0.5 mg/kg SC, derived from Puech); format: in vivo; settings: Rattus norvegicus, ip, compound i.p. 30 minutes before apomorphine 0.5 mg/kg SC, read-out: ID50 I.P., Apomorphine stereotypy (0.5 mg/kg SC)
Text: as §5, §6

[6] = system: dexamphetamine stereotypy; assay: Antagonism of dexamphetamine stereotypy in rats (Janssen amphetamine test); format: in vivo; settings: Rattus norvegicus, sc, 1 h, compound s.c. simultaneously with dexamphetamine 10 mg/kg i.v., effect at 60 minutes, read-out: ID50 S.C., Janssen amphetamine test
Method: Apomorphine and amphetamine induce stereotyped movements in rats which are antagonized by neuroleptics. Different doses of apomorphine administered by different routes were applied to produce these movements. In the test using dexamphetamine, carried out according to the technique of Janssen (Arz. Forsch. 1961, 11, 932-938), 10 mg/kg of dexamphetamine were injected intravenously, the test product being injected simultaneously subcutaneously, and the effect being measured 60 minutes after these injections. These different experimental conditions made it possible to establish the doses which antagonize stereotypy by 50% (ID50), judged on the basis of the various components of the movements which were observed.

[7] = system: apomorphine-induced climbing behavior; assay: Antagonism of apomorphine-induced climbing behavior in mice; format: in vivo; settings: Mus musculus, ip, compound i.p. 30 minutes before apomorphine 1 mg/kg s.c., read-out: ID50 I.P., apomorphine-induced climbing behavior
Method: Another test using apomorphine was applied, based on the observation of the climbing behavior which it induces in mice, this behavior being antagonized by neuroleptics, according to Puech (Eur. J. Pharmacol. 1978, 50, 291-300).
The compound was administered intraperitoneally 30 minutes before the apomorphine (1 mg/kg subcutaneously), and the antagonism was assessed 45 to 50 minutes after the administration of the compound.

[8] = ip, read-out: Lethal doses50 i.p.
[9] = iv, read-out: Lethal doses50 i.v.
[10] = po, orally, read-out: Lethal doses50 orally
[11] = sc, read-out: Lethal doses50 s.c.
[12] = ip, read-out: ID50 i.p., Winter and Flataker test
[13] = po, read-out: ID50 p.o., Winter and Flataker test
[14] = ip, read-out: ID50 i.p., Animex activity measurement test
[15] = po, read-out: ID50 p.o., Animex activity measurement test

Question: With `CNS(=O)(=O)c1cc2c(c(C(=O)NCC3CCCN3CC3=CCCCC3)c1)OC(C)C2` (stereo not drawn) [Ex 1, N-(1-Cyclohexenylmethyl-2-pyrrolidinylmethyl)-5-methylsulphamoyl-2-methyl-2,3-dihydrobenzofuran-7-carboxamide] as the compound, how does the LD50 [1, 8] read?
Answer: 134 to 152 mg/kg

Question: And the LD50 [1, 9]?
Answer: 30.5 to 35.2 mg/kg

Question: And the LD50 [1, 10]?
Answer: 259 to 295 mg/kg

Question: And the LD50 [1, 11]?
Answer: 316 to 318 mg/kg

Question: What about the ED50 [2, 12] of the same compound?
Answer: 1.8 mg/kg

Question: And the ED50 [2, 13]?
Answer: 12.4 to 13.2 mg/kg

Question: What about the ED50 [3, 14] of the same compound?
Answer: 2.15 to 3.4 mg/kg

Question: What about the ED50 [3, 15] of the same compound?
Answer: 19.2 to 22.4 mg/kg

Question: What about the ED50 (catalepsy in rats) of the same compound?
Answer: 6.6 mg/kg

Question: What about the ED50 (Apomorphine stereotypy [4]) of the same compound?
Answer: 0.375 mg/kg

Question: What about the ED50 (Apomorphine stereotypy [5]) of the same compound?
Answer: 0.64 to 0.65 mg/kg

Question: And the ED50 [6]?
Answer: 0.285 mg/kg

Question: And the ED50 [7]?
Answer: 0.55 to 0.63 mg/kg

Question: Which results are given for `CCS(=O)(=O)c1cc2c(c(C(=O)NCC3CCCN3CC3=CCCCC3)c1)OCCC2` (stereo not drawn) [Ex 11, N-(1-Cyclohexenylmethyl-2-pyrrolidinylmethyl)-6-ethylsulphonylchroman-8-carboxamide]?
Answer: LD50 [1, 8]: 125 to 127 mg/kg; LD50 [1, 9]: 28 to 28.6 mg/kg; LD50 [1, 10]: 149 to 163 mg/kg; LD50 [1, 11]: 141 to 145 mg/kg; ED50 [2, 12]: 1.3 mg/kg; ED50 [2, 13]: 16.6 mg/kg; ED50 [3, 14]: 1.22 mg/kg; ED50 [3, 15]: 16.6 mg/kg; ED50 (catalepsy in rats): 1.66 mg/kg; ED50 (Apomorphine stereotypy [4]): 0.134 mg/kg; ED50 (Apomorphine stereotypy [5]): 0.18 to 0.23 mg/kg; ED50 [6]: 0.066 mg/kg; ED50 [7]: 0.105 to 0.126 mg/kg

Question: What does the source list for `O=C(NCC1CCCN1CC1=CCCCC1)c1cc(Cl)cc2c1OCCC2.O=C(O)/C=C/C(=O)O` (stereo not drawn) [Ex 13, N-(1-Cyclohexenylmethyl-2-pyrrolidinylmethyl)-6-chlorochroman-8-carboxamide fumarate]?
Answer: LD50 [1, 8]: 120 mg/kg; LD50 [1, 10]: 422 to 473 mg/kg; mortality ([1]; sc, at 900 mg/kg, read-out: deaths of animals at 900 mg/kg s.c.): 0%; ED50 [2, 12]: 1.96 mg/kg; ED50 [2, 13]: 20.9 mg/kg; ED50 [3, 14]: 3 mg/kg; ED50 [3, 15]: 22.7 mg/kg; ED50 (catalepsy in rats): 1.5 mg/kg; ED50 (Apomorphine stereotypy [4]): 0.22 mg/kg; ED50 (Apomorphine stereotypy [5]): 0.38 to 0.44 mg/kg; ED50 [6]: 0.15 mg/kg; ED50 [7]: 0.32 to 0.35 mg/kg

Question: Which results are given for `CNS(=O)(=O)c1cc2c(c(C(=O)NCC3CCCN3CC3=CCCCC3)c1)OCCC2` (stereo not drawn) [Ex 2, N-(1-Cyclohexenylmethyl-2-pyrrolidinylmethyl)-6-methylsulphamoylchroman-8-carboxamide]?
Answer: LD50 [1, 8]: 167 to 172 mg/kg; LD50 [1, 9]: 42.6 to 43.7 mg/kg; LD50 [1, 10]: 342 to 354 mg/kg; LD50 [1, 11]: 406 to 408 mg/kg; ED50 [2, 12]: 6.2 mg/kg; ED50 [2, 13]: 31.5 mg/kg; ED50 [3, 14]: 7.5 mg/kg; ED50 [3, 15]: 31.5 mg/kg; ED50 (catalepsy in rats): 17.6 mg/kg; ED50 (Apomorphine stereotypy [4]): 0.73 mg/kg; ED50 (Apomorphine stereotypy [5]): 2.5 to 2.7 mg/kg; ED50 [6]: 0.77 mg/kg; ED50 [7]: 1.2 to 1.24 mg/kg
